The text below walks through data of patent publication US20090149436A1, “CASPASE INHIBITOR” (Astellas Pharma Inc., priority 2004, published 2009).

Like-named read-outs stand apart in the source and are kept apart here.

What all share (type): biochemical
For experiment [1], the target named is T1, trypsin (Bos taurus, UniProt P00760).
T1 construct: gene PRSS1
T1 sequence (P00760 24-246): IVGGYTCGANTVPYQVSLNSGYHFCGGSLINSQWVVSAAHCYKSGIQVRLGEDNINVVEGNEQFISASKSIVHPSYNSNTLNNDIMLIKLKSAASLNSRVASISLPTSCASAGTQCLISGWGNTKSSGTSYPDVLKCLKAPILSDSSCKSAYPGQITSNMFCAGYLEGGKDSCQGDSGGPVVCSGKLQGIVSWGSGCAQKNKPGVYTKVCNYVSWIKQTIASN
In words: Enzyme specificity assay, trypsin (substrate Boc-Phe-Ser-Arg-MCA). As to conditions: FIG. 2; phosphate buffer pH 5.5. The protocol: (§1) The above-mentioned compound was assayed for the inhibitory activity using […], cathepsin L and trypsin as enzymes other than caspase 3 and by an assay method similar to the above-mentioned Example 1 using phosphate buffer, pH 5.5 (100 mM NaCl, 5-mM DTT, 4 mM EDTA) as a buffer, Z-Arg-Arg-MNA as a substrate for […], Z-Phe-Arg-MNA as a substrate for cathepsin L, and Boc-Phe-Ser-Arg-MCA as a substrate for trypsin.

Experiment [2] addresses cathepsin L (Homo sapiens, UniProt P07711). In words: Enzyme specificity assay, cathepsin L (substrate Z-Phe-Arg-MNA). To be noted: FIG. 2; phosphate buffer pH 5.5. The protocol: as §1
In experiment [3] the target is cathepsin B (Homo sapiens, UniProt P07858). In words: Enzyme specificity assay, cathepsin B (substrate Z-Arg-Arg-MNA). As to conditions: FIG. 2; phosphate buffer pH 5.5. How it is done:
as §1

Experiment [4] concerns the target T2, human recombinant caspase 3 (Homo sapiens, UniProt P42574).
T2 construct: purchased CALBIOCHEM 235417
T2 sequence (P42574 29-175 limits assumed): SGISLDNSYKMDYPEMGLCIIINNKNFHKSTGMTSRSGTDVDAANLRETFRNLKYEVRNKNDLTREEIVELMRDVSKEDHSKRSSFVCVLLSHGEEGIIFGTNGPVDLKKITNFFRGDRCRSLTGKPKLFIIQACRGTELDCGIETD
T2 sequence (P42574 176-277 limits assumed): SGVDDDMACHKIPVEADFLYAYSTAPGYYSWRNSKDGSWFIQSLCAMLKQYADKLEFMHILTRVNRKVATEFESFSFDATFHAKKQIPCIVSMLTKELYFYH
In words: Assay of inhibitory activity against human recombinant caspase 3 (fluorogenic substrate Ac-DEVD-MCA). As to conditions: for specificity of the enzyme inhibitory activity (in words): caspase 3 versus cathepsins and trypsin. The protocol:
A reaction buffer containing 10% sucrose, 0.1% CHAPS, 2 mM dithiothreitol in 25 mM HEPES (pH 7.5) is prepared. […] Thereto is added 25 μl of human recombinant caspase 3 (CALBIOCHEM catalog No. 235417), 500 U/ml, to start the reaction. After incubation at room temperature for 2 hr. the reaction quench buffer (0.1 M monochloroacetic acids 0.03 M sodium acetate, 0.15 M acetic acid (pH 4.3)) is added by 100 μl per well. The fluorescence of 7-amino-4-methylcoumarin ([…]) released by the enzyme reaction is measured using a fluorophotometer (Ex. 355 nm, Em. 460 nm).
The compounds of the above-mentioned 1. were examined for the activity inhibitory action on human recombinant caspase 3.

Setting [5] is: FIG. 1 upper panel, read-out: IC50, inhibitory activity against human recombinant caspase 3.
The mark [6] stands for this setting: FIG. 1 lower panel, read-out: IC50, inhibitory activity against human recombinant caspase 3.

cathepsin L, sequence (P07711 114-333, species assumed): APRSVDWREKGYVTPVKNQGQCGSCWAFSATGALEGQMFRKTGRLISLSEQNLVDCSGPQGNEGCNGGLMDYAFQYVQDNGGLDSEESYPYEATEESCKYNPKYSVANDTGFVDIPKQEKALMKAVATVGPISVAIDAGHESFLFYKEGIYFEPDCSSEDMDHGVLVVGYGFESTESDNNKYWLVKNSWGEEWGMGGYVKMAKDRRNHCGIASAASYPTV

For the compound `CC(=O)N[C@@H](CC(=O)O)C(=O)N[C@@H](CCC(=O)O)C(=O)N[C@H](C(=O)N[C@H](C=O)CC(=O)O)C(C)C` [DEVD, acetyl-L-aspartyl-L-glutamyl-L-valyl-L-aspart-1-al, reference compound], the IC50 in experiment [1] is > 100000 nM; in experiment [2] it was 17400 nM; in experiment [3] it was 672 nM. In addition, in experiment [4] (FIG. 2), the “specificity of the enzyme inhibitory activity (in words)” value was “strongest inhibitory activity against caspase 3”.
Consider `C=CC1=C(C)c2cc3[n-]c(cc4nc(cc5[n-]c(cc1n2)c(C)c5CCC(=O)[O-])C(CCC(=O)[O-])=C4C)c(C)c3C=C.[Co+2].[H+].[H+]` [cobalt protoporphyrin], for which the IC50 in experiment [4] (setting [5]) was determined as 13.1 nM.
For the compound `C/C1=C2/[N-]C([C@H](CC(N)=O)[C@@]2(C)CCC(=O)NCC(C)O)[C@]2(C)N=C(/C(C)=C3N=C(/C=C4N=C1[C@@H](CCC(N)=O)C\4(C)C)[C@@H](CCC(N)=O)[C@]\3(C)CC(N)=O)[C@@H](CCC(N)=O)[C@]2(C)CC(N)=O.[C-]#N.[C-]#N.[Co]` (some centres unmarked) [dicyanocobinamide], the IC50 in experiment [1] was > 5000 nM; in experiment [2] it was 6.12 nM; in experiment [3], 102 nM; in experiment [4] (setting [6]) it was 0.142 nM; in experiment [4] (setting [5]), 0.28 nM; in experiment [4] (FIG. 2, read-out: IC50, caspase (Enzyme Specificity)) it was 0.28 nM. Besides, the “caspase 3 inhibitory activity (in words)” value in experiment [4] (FIG. 1, compared with DEVD, standard product) was “far stronger than the inhibitory activity of DEVD”. In addition, in experiment [4] (FIG. 2), the “specificity of the enzyme inhibitory activity (in words)” value was “strongest inhibitory activity against caspase 3”. Besides, the “Inhibitory mode against human recombinant caspase 3 (Lineweaver-Burk plot)” value in experiment [4] (FIG. 3, different substrate concentrations (2, 4, 6 and 8 nM)) is “competitively inhibits the substrate for caspase 3”.
Turning to cyanocobalamin [reference compound], the IC50 in experiment [4] (setting [6]) was 1760 nM; in experiment [4] (setting [5]) it was 2100 nM.
cyanoimidazolylcobamide: the half-maximal inhibitory concentration (IC50) in experiment [4] (setting [6]) is 91.2 nM.

One may read the IC50 as the concentration needed to halve the response being measured.
